Data reported in the supplement of paper PMC10307832.

Tests used:
Assay in all cases: relative viability (nuclei count vs DMSO), 5 days (fraction); higher = more cells survive
Cediranib + OSI-027 = compound: COc1cc2c(Oc3ccc4[nH]c(C)cc4c3F)ncnc2cc1OCCCN1CCCC1 [Cediranib] + COc1cccc2cc(-c3nc([C@H]4CC[C@H](C(=O)O)CC4)n4ncnc(N)c34)[nH]c12 [OSI-027] (partner 0.5 µM)
In short: (§1)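 One day after seeding in 1536-well plates, lung cancer cell lines were dosed by pin tool. Dosing was either single-drug or a fixed anchor-drug dose plus five library-drug doses (not always all listed) in √10 steps. After 5 days, nuclei were stained in one fix-and-stain step and counted on 4× images, and relative viability is the nuclei count of treated wells over that of vehicle wells, given as the median of duplicate plates.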

Decitabine + Luminespib = compound: Nc1ncn([C@H]2C[C@H](O)[C@@H](CO)O2)c(=O)n1 [Decitabine] + CCNC(=O)c1noc(-c2cc(C(C)C)c(O)cc2O)c1-c1ccc(CN2CCOCC2)cc1 [Luminespib] (partner 0.01 µM)
In short: as §1

Decitabine + Dasatinib = compound: Nc1ncn([C@H]2C[C@H](O)[C@@H](CO)O2)c(=O)n1 [Decitabine] + Cc1nc(Nc2ncc(C(=O)Nc3c(C)cccc3Cl)s2)cc(N2CCN(CCO)CC2)n1 [Dasatinib] (partner 0.075 µM)
In short: as §1

[1] = compound: O=C(C[C@H]1NCCC[C@@H]1O)Cn1cnc2cc(Br)c(Cl)cc2c1=O (racemic) [Halofuginone] + CC(C)C[C@H](NC(=O)[C@H](Cc1ccccc1)NC(=O)c1cnccn1)B(O)O [Bortezomib] (partner 0.002 µM)
In short: as §1

Cell Line	relative viability (Cediranib + OSI-027; first compound 0.04 µM)	relative viability (Cediranib + OSI-027; first compound 0.4 µM)	relative viability (Cediranib + OSI-027; first compound 1.265 µM)	relative viability (Cediranib + OSI-027; first compound 4 µM)	relative viability (Decitabine + Luminespib; first compound 0.04 µM)	relative viability (Decitabine + Luminespib; first compound 0.1265 µM)	relative viability (Decitabine + Luminespib; first compound 0.4 µM)	relative viability (Decitabine + Luminespib; first compound 1.265 µM)	relative viability (Decitabine + Luminespib; first compound 4 µM)	relative viability (Decitabine + Dasatinib; first compound 0.04 µM)	relative viability (Decitabine + Dasatinib; first compound 0.1265 µM)	relative viability (Decitabine + Dasatinib; first compound 0.4 µM)	relative viability (Decitabine + Dasatinib; first compound 1.265 µM)	relative viability (Decitabine + Dasatinib; first compound 4 µM)	relative viability ([1]; first compound 0.001 µM)	relative viability ([1]; first compound 0.003162 µM)	relative viability ([1]; first compound 0.01 µM)	relative viability ([1]; first compound 0.03162 µM)	relative viability ([1]; first compound 0.1 µM)	relative viability (Cediranib + OSI-027; first compound 0.1265 µM)
NCI-H23	0.511	0.557	0.511	0.582	0.215	0.213	0.202	0.199	0.203	0.689	0.653	0.356	0.271	0.192	1	1.24	1.02	0.947	0.494	
A-427	0.515	0.339	0.361	0.405	0.65	0.466	0.303	0.262	0.227	0.51	0.341	0.214	0.196	0.206	1	0.869	1	0.954	0.932	
ABC-1	0.447	0.532		0.437		0.807	0.521	0.345	0.331	0.451	0.553	0.588	0.416	0.421	0.255	0.328	0.24	0.367	0.279	0.651
NCI-H322M	0.541	0.535	0.52	0.538	0.77	0.835	0.669	0.441	0.489	0.246	0.327	0.299	0.285	0.349	1.16	1.13	1.28	1.16	0.997	0.567
COR-L23	0.913	0.738	0.675	0.872	0.331	0.402	0.298	0.222	0.148	0.255	0.347	0.29	0.161	0.18	1.15	1.1	0.963	0.965	0.184	0.767
NCI-H2085	0.801	0.759	0.48	0.856	0.436	0.404	0.323	0.372	0.344	0.25	0.256	0.285	0.279	0.204	1.07	1.06	1.04	0.9	0.753	0.786
NCI-H2087	0.558	0.526	0.425	0.763	0.172	0.175	0.204	0.135	0.158	0.523	0.452	0.358	0.246	0.23	0.758	0.839	0.86	0.676	0.917	0.742
NCI-H2126	0.649	0.668	0.597	0.537	0.811	0.723	0.547	0.492	0.485	0.603	0.547	0.429	0.421	0.376	1.16	1.08	1.07	1.07	1.11	0.577
SK-LU-1	0.343	0.338	0.257	0.33	0.18	0.212	0.196	0.204	0.208	0.188	0.166	0.173	0.154	0.185	1.28	0.931	0.955	1.31	0.821	0.39
LCLC-97TM1	0.605	0.518	0.508	0.566	0.403	0.48	0.322	0.143	0.159	0.535	0.507	0.42	0.222	0.119	0.49	0.365	0.512	0.144	0.179	0.332
NCI-H1563	0.799	0.767	0.744	0.796	0.564	0.508	0.428	0.545	0.495	0.447	0.462	0.584	0.485	0.499	0.708	0.885	0.686	0.585	0.515	1.03
NCI-H838	0.41	0.379	0.348	0.483	0.213	0.188	0.296	0.191	0.165	0.326	0.325	0.241	0.273	0.242	1.16	1.03	0.746	0.614	0.121	0.364
NCI-H520	0.403	0.211	0.202	0.226	0.212	0.214	0.214	0.254	0.239	0.263	0.242	0.217	0.239	0.19	0.723	0.721	0.494	0.579	0.314	0.239
NCI-H2347	0.376	0.371	0.407	0.425	0.472	0.393	0.515	0.453	0.36	0.295	0.315	0.351	0.283	0.286	1.24	1.09	0.758	1.03	0.852	0.448
NCI-H441	0.809	0.658	0.675	0.632	0.271	0.371	0.337	0.293	0.256	0.335	0.266	0.26	0.211	0.206	0.456	0.457	0.6	0.491	0.433	
NCI-H2405	0.648	0.617	0.52	0.622	0.798	0.654	0.59	0.431	0.445	0.209	0.194	0.286	0.204	0.203	1.07	0.948	0.968	0.943	0.904	0.606
HCC-15	0.625	0.674	0.692	0.717	0.301	0.38	0.267	0.191	0.195	0.625	0.581	0.408	0.361	0.333	1.02	1.14	1.05	1.03	0.952	
